Experimental data taken from patent publication US20250034182A1, “PHOSPHOLIPID COMPOUNDS AND METHODS OF MAKING AND USING THE SAME” (priority 2021, published 2025).
Read-outs that look alike come from different tables or passages of the source.

Columns and labels:
Assay type in all cases: cell-based
[1] = HCV Replicon 2A CC50, calcein AM (Example Q); details: calcein AM fluorescence, read-out: HCV Replicon 2A CC50 (nM) (per Ex. Q)
Description: (§1) Compounds were serially diluted in ten steps of 1:3 dilutions in 384-well plates. All serial dilutions were performed in four replicates per compound within the same 384-well plate. An HCV protease inhibitor ITMN-191 at […] was added as a control of 100% inhibition of HCV replication while puromycin at 10 mM was included as a control of 100% cytotoxicity. To each well of a black polystyrene 384-well plate (Greiner Bio-one, Monroe, NC), 90 μL of cell culture medium (without Geneticin) containing 2000 suspended HCV replicon cells was added with a Biotek μFlow workstation. For compound transfer into cell culture plates, 0.4 μL of compound solution from the compound serial dilution plate was transferred to the cell culture plate on a Biomek FX workstation. The DMSO concentration in the final assay wells was 0.44%. The plates were incubated for 3 days at 37° C. with 5% CO2 and 85% humidity. The HCV replicon assay was a multiplex assay, able to assess both cytotoxicity and antireplicon activity from the same well. The CC50 assay was performed first. The media in the 384-well cell culture plate was aspirated, and the wells were washed four times with 100 μL of PBS each, using a Biotek ELX405 plate washer. A volume of 50 μL of a solution containing 400 nM calcein AM (Anaspec, Fremont, CA) in 1×PBS was added to each well of the plate with a Biotek μFlow workstation. The plate was incubated for 30 min at room temperature before the fluorescence signal (excitation 490 nm, emission 520 nm) was measured with a Perkin-Elmer Envision plate reader. The EC50 assay was performed in the same wells as the CC50 assay. The calcein-PBS solution in the 384-well cell culture plate was aspirated with a Biotek ELX405 plate washer. A volume of 20 μL of Dual-Glo luciferase buffer (Promega, Madison, WI) was added to each well of the plate with a Biotek μFlow Workstation. The plate was incubated for 10 min at room temperature. A volume of 20 μL of a solution containing a 1:100 mixture of Dual-Glo Stop & Glo substrate (Promega, Madison, WI) and Dual-Glo Stop & Glo buffer (Promega, Madison, WI) was added to each well of the plate with a Biotek μFlow Workstation. The plate was then incubated at room temperature for 10 min before the luminescence signal was measured with a Perkin-Elmer Envision Plate Reader.

HCV Replicon 2A = HCV Replicon 2A EC50 (Example Q); details: Hepatitis C virus, 72 h, read-out: HCV Replicon 2A EC50 (nM) (per Ex. Q)
Description: as §1

[2] = HCV Replicon 1B CC50, calcein AM (Example Q); details: calcein AM fluorescence, read-out: HCV Replicon 1B CC50 (nM) (per Ex. Q)
Description: as §1

HCV Replicon 1B = HCV Replicon 1B EC50 (Example Q); details: Hepatitis C virus, 72 h, read-out: HCV Replicon 1B EC50 (nM) (per Ex. Q)
Description: as §1

[3] = test system: Recombinant Respiratory Syncytial virus strain A2 containing the firefly luciferase reporter (RSV-Fluc) in NHBE cells; assay: RSV NHBE FLuc EC50 (Example I); details: human respiratory syncytial virus, 72 h, read-out: RSV NHBE FLuc EC50 (nM) (per Ex. I)
Outline: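 NHBE primary cells (passage 2-4) treated with threefold compound dilutions and infected with RSV A2 firefly-luciferase reporter virus at MOI 0.1; 3 days at 37° C, 5% CO2. ONE-Glo luminescence normalized to uninfected and infected DMSO controls; EC50 from non-linear regression, duplicates with two technical repeats.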

in vitro = details: human
Description: H1-HeLa cell viability was measured using the CellTiter-Glo® Luminescent Cell Viability Assay kit (Promega, Cat #G7573) according to the manufacturer's protocol. H1-HeLa cells were maintained in Dulbecco's Modified Eagle's Medium with high glucose (Gibco, Cat #: 11995073) supplemented with 10% FBS (HyClone, Cat #: SH303396.03), 100 units/mL penicillin and 100 µg/mL streptomycin (Gibco, Cat #: 15140122). One day before compound treatment, H1-HeLa cells were seeded at […] into 96-well plates (Corning, Cat #3904) in Opti-MEM (Gibco, Cat #: 31985070) supplemented with 2% FBS, and were incubated at 37° C. in a 100% humid atmosphere containing 5% (v/v) CO2. After overnight incubation, the cells were treated with three-fold serial dilutions of the compound. At 96 hours post treatment, CellTiter-Glo reagents were added into each well and luminescence signals were recorded by an EnVision plate reader. The relative cell viability was calculated by normalizing the absorbance of the compound-treated groups to that of the DMSO-treated groups (set as 100% viability) and 10 μM puromycin treated groups (set as 0% viability). The CC50 (compound concentration for reducing 50% of cell viability) was calculated using a nonlinear regression model (four parameters).

[4] = HCV replicon cells, 3 days, Dual-Glo luciferase

SMILES	CC50 at 3 days ([1]; HCV replicon cells (2A)) [nM]	EC50 (HCV Replicon 2A; [4]) [nM]	CC50 at 3 days ([2]; HCV replicon cells (1B)) [nM]	EC50 (HCV Replicon 1B; [4]) [nM]	EC50 [3] [nM]	CC50 at 3 days ([1]; HCV replicon cells) [nM]	EC50 (HCV Replicon 2A) [nM]	CC50 at 3 days ([2]; HCV replicon cells) [nM]	EC50 (HCV Replicon 1B) [nM]	CC50 at 96 h (in vitro) [µM]
CCCCCCCCCCCCCCCCCC[C@@H](COP(=O)(O)OC[C@@]1(C#N)O[C@@H](c2ccc3c(N)ncnn23)[C@H](O)[C@@H]1O)OCc1cc(F)cc(C#N)c1 [Compound 37, ((2R,3S,4R)-5-(4-aminopyrrolo[2,1-f][1,2,4]triazin-7-yl)-2-cyano-3,4-dihydroxytetrahydrofuran-2-yl)methyl ((S)-2-((3-cyano-5-fluorobenzyl)oxy)icosyl) hydrogen phosphate]	> 44400	26000	> 44400	22500	276	–	–	–	–	–
CCCCCCCCCCCCCCCCC[C@@H](COP(=O)(O)OC[C@@]1(C#N)O[C@@H](c2ccc3c(N)ncnn23)[C@H](O)[C@@H]1O)OCc1cc(F)cc(C#N)c1 [Compound 74, ((2R,3S,4R)-5-(4-aminopyrrolo[2,1-f][1,2,4]triazin-7-yl)-2-cyano-3,4-dihydroxytetrahydrofuran-2-yl)methyl ((S)-2-((3-cyano-5-fluorobenzyl)oxy)nonadecyl) hydrogen phosphate]	–	–	–	–	–	35800	22800	> 44400	26200	–
CCCCCCCCCCCCCCCCCOC[C@H](COP(=O)(O)OC[C@@]1(C#N)O[C@@H](c2ccc3c(N)ncnn23)[C@H](O)[C@@H]1O)OCc1cc(F)cc(C#N)c1 [Compound 53, ((2R,3S,4R,5S)-5-(4-aminopyrrolo[2,1-f][1,2,4]triazin-7-yl)-2-cyano-3,4-dihydroxytetrahydrofuran-2-yl)methyl ((R)-2-((3-cyano-5-fluorobenzyl)oxy)-3-(heptadecyloxy)propyl) hydrogen phosphate]	36200	15500	> 44400	15500	69	–	–	–	–	–
CCCCCCCCCCCCCCCCCCCC[C@H](COP(=O)(O)OC[C@@]1(C#N)O[C@@H](c2ccc3c(N)ncnn23)[C@H](O)[C@@H]1O)Oc1cccc(C#N)c1 [Compound 51, ((2R,3S,4R,5S)-5-(4-aminopyrrolo[2,1-f][1,2,4]triazin-7-yl)-2-cyano-3,4-dihydroxytetrahydrofuran-2-yl)methyl ((R)-2-(3-cyanophenoxy)docosyl) hydrogen phosphate]	> 44400	19200	> 44400	14600	66	–	–	–	–	–
CCCCCCCCCCCCCCCCCCC[C@H](COP(=O)(O)OC[C@@]1(C#N)O[C@@H](c2ccc3c(N)ncnn23)[C@H](O)[C@@H]1O)OCc1ccc(-n2cncn2)c(C#N)c1 [Compound 30, ((2R,3S,4R)-5-(4-aminopyrrolo[2,1-f][1,2,4]triazin-7-yl)-2-cyano-3,4-dihydroxytetrahydrofuran-2-yl)methyl ((R)-2-((3-cyano-4-(1H-1,2,4-triazol-1-yl)benzyl)oxy)henicosyl) hydrogen phosphate]	–	–	–	–	–	42400	15800	> 44400	3990	4.96
CCCCCCCCCCCCCCCCCCOC[C@H](COP(=O)(O)OC[C@@]1(C#N)O[C@@H](c2ccc3c(N)ncnn23)[C@H](O)[C@@H]1O)OCc1ccc(C#N)cc1OC [Compound 73, ((2R,3S,4R)-5-(4-aminopyrrolo[2,1-f][1,2,4]triazin-7-yl)-2-cyano-3,4-dihydroxytetrahydrofuran-2-yl)methyl ((R)-2-((4-cyano-2-methoxybenzyl)oxy)-3-(octadecyloxy)propyl) hydrogen phosphate]	> 44400	20400	> 44400	15900	25	–	–	–	–	–
CCCCCCCCCCCCCCCCCCOC[C@@H](COP(=O)(O)OC[C@@]1(C#N)O[C@@H](c2ccc3c(N)ncnn23)[C@H](O)[C@@H]1O)Oc1ccc(C#N)nc1 [Compound 72, ((2R,3S,4R,5S)-5-(4-aminopyrrolo[2,1-f][1,2,4]triazin-7-yl)-2-cyano-3,4-dihydroxytetrahydrofuran-2-yl)methyl ((S)-2-((6-cyanopyridin-3-yl)oxy)-3-(octadecyloxy)propyl) hydrogen phosphate]	–	–	–	–	–	> 44400	> 44400	> 44400	465	5.1
CCCCCCCCCCCCCCCC[C@H](COP(=O)(O)OC[C@@]1(C#N)O[C@@H](c2ccc3c(N)ncnn23)[C@H](O)[C@@H]1O)OCc1cc(F)cc(C#N)c1 [Compound 78, ((2R,3S,4R,5S)-5-(4-aminopyrrolo[2,1-f][1,2,4]triazin-7-yl)-2-cyano-3,4-dihydroxytetrahydrofuran-2-yl)methyl ((R)-2-((3-cyano-5-fluorobenzyl)oxy)octadecyl) hydrogen phosphate]	33800	18400	> 44400	27600	–	–	–	–	–	–
CCCCCCCCCCCCCCC[C@H](COP(=O)(O)OC[C@@]1(C#N)O[C@@H](c2ccc3c(N)ncnn23)[C@H](O)[C@@H]1O)OCc1cc(F)cc(C#N)c1 [Compound 80, ((2R,3S,4R,5S)-5-(4-aminopyrrolo[2,1-f][1,2,4]triazin-7-yl)-2-cyano-3,4-dihydroxytetrahydrofuran-2-yl)methyl ((R)-2-((3-cyano-5-fluorobenzyl)oxy)heptadecyl) hydrogen phosphate]	36900	21200	> 44400	32400	–	–	–	–	–	7.08
CCCCCCCCCCCCCCCCCCOC[C@H](COP(=O)(O)OC[C@@]1(C#N)O[C@@H](c2ccc3c(N)ncnn23)[C@H](O)[C@@H]1O)Oc1cccc(C#N)n1 [Compound 21, ((2R,3S,4R,5S)-5-(4-aminopyrrolo[2,1-f][1,2,4]triazin-7-yl)-2-cyano-3,4-dihydroxytetrahydrofuran-2-yl)methyl ((R)-2-((6-cyanopyridin-2-yl)oxy)-3-(octadecyloxy)propyl) hydrogen phosphate]	> 44400	19200	> 44400	13300	41	–	–	–	–	–
CCCCCCCCCCCCCCCCCCCC[C@@H](COP(=O)(O)OC[C@@]1(C#N)O[C@@H](c2ccc3c(N)ncnn23)[C@H](O)[C@@H]1O)OCc1cc(F)cc(C#N)c1 [Compound 70, ((2R,3S,4R)-5-(4-aminopyrrolo[2,1-f][1,2,4]triazin-7-yl)-2-cyano-3,4-dihydroxytetrahydrofuran-2-yl)methyl ((S)-2-((3-cyano-5-fluorobenzyl)oxy)docosyl) hydrogen phosphate]	–	–	–	–	–	42700	25200	> 44400	19600	–
